Source: patent US11807693B2 (priority 2014, dated 2023)
Starred links: 1 amine or outer side, 2 acyl side, 3 side chain; linkers in the order of their positions; H or OH if unused. Non-standard residues stand in square brackets, D forms with d. Residues, ends and D or L forms follow the SMILES beside them. ξ: configuration not given here. *: point of attachment. dBip = N[C@H](Cc1ccc(-c2ccccc2)cc1)C(=O)O; Oic = O=C(O)[C@@H]1C[C@@H]2CCCC[C@@H]2N1; Phe(4-Cl) = N[C@@H](Cc1ccc(Cl)cc1)C(=O)O; dPhe(4-Cl) = N[C@H](Cc1ccc(Cl)cc1)C(=O)O; Phe(4-I) = N[C@@H](Cc1ccc(I)cc1)C(=O)O; γGlu = O=C(O)[C@H](CCC(=O)[*:2])N[*:1]; NMeR = CN[C@@H](CCCNC(=N)N)C(=O)O; Tridecanoyl = CCCCCCCCCCCCC(=O)*; hArg = N=C(N)NCCCC[C@H](N)C(=O)O; Cha = N[C@@H](CC1CCCCC1)C(=O)O; NMeL = CN[C@@H](CC(C)C)C(=O)O; αMeL = CC(C)C[C@](C)(N)C(=O)O; ξαMeL = CC(C)CC(C)(N)C(=O)O; Nle = CCCC[C@H](N)C(=O)O; ξαMeP = CC1(C(=O)O)CCCN1; ξβ3hV = CC(C)C(N)CC(=O)O; AEEA = NCCOCCOCC(=O)O; Aib = CC(C)(N)C(=O)O; βAla = NCCC(=O)O

Assays:
[1] = In vitro stability in rat plasma; assay type: in vitro ADME
Summary of the method: (§1)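 Peptide remaining was followed by high-resolution LC-MS of methanol-quenched, centrifuged samples with internal standard. Incubations were at 37° C. over 4 hr, peptides at 5 μM final in rat plasma or in rat liver or kidney homogenate.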

[2] = In vitro stability in rat kidney homogenate; assay type: in vitro ADME; conditions: rat, tissue homogenate
Summary of the method: as §1

[3] = In vitro stability in rat liver homogenate; assay type: in vitro ADME; conditions: tissue homogenate
Summary of the method: as §1

human APJ receptor = target: T1, human APJ receptor (Homo sapiens, UniProt P35414); experiment: [35S] GTPγS assay, human APJ receptor; assay type: biochemical
T1 construct: expressed in transfected cells
T1 sequence (P35414 1-380): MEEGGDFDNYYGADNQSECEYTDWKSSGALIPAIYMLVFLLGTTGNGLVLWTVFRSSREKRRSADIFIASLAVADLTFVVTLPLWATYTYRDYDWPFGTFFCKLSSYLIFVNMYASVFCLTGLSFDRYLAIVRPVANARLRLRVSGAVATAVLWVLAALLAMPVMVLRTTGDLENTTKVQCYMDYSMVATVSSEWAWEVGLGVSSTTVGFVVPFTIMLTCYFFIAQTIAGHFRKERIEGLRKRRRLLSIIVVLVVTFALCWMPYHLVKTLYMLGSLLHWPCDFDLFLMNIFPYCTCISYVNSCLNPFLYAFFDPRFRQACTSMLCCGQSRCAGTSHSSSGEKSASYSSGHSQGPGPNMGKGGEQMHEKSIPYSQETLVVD

rat APJ receptor = target: T2, rat APJ receptor (Rattus norvegicus, UniProt Q9JHG3); experiment: [35S] GTPγS assay, rat APJ receptor; assay type: biochemical; conditions: Table 16, read-out: EC50 Rat APJ Receptor
T2 construct: expressed in transfected cells
T2 sequence (Q9JHG3 1-377): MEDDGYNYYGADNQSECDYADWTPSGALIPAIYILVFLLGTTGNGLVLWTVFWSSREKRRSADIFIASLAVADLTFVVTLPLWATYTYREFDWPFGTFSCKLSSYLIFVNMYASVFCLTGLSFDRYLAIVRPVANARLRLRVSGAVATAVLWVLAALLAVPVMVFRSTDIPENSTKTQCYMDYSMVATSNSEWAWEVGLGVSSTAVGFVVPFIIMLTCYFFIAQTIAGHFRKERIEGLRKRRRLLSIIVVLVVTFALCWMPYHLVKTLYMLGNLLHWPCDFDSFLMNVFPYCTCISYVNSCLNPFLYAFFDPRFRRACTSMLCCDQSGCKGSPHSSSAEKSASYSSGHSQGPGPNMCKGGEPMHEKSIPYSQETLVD
Experimental: The membranes were incubated with modified peptides in the assay buffer. […] Bound [^35S] GTPγS was separated from free radiolabel by filtration. The filter bound radioactivity was determined by liquid scintillation counting.

| SMILES | remaining at 4 h, 5 μM [1] [%] | remaining at 4 h, 5 μM [2] [%] | remaining at 4 h, 5 μM [3] [%] | EC50 (human APJ receptor; Table 16) [nM] | EC50 (human APJ receptor; human APJ receptor) [nM] | EC50 (rat APJ receptor) [nM] |
| --- | --- | --- | --- | --- | --- | --- |
| CCCCCCCCCCCCC(=O)N[C@@H](CCC(=O)NCCOCCOCC(=O)NCCOCCOCC(=O)N[C@H](CCC(N)=O)C(=O)N[C@@H](CCCNC(=N)N)C(=O)N1CCC[C@H]1C(=O)N[C@@H](CCC(=O)O)C(=O)N[C@@H](CC1CCCCC1)C(=O)N[C@@H](CO)C(=O)N[C@@H](Cc1c[nH]cn1)C(=O)N[C@@H](CCCCN)C(=O)NCC(=O)N1[C@H](C(=O)N[C@@H](CCCC)C(=O)NC(C)(C)C(=O)N[C@@H](Cc2ccc(Cl)cc2)C(=O)O)C[C@@H]2CCCC[C@@H]21)C(=O)O [compound 526] ({Tridecanoyl-γGlu-AEEA-AEEA}-[dQ]RPE[Cha]SHKG[Oic][Nle][Aib][Phe(4-Cl)]-OH) | > 90 | < 1 | 5 | 2.02 |  |  |
| CCCCCCCCCCCCC(=O)N[C@@H](CCC(=O)NCCOCCOCC(=O)NCCOCCOCC(=O)N[C@@H](CCCC)C(=O)N[C@H](CCCNC(=N)N)C(=O)N[C@@H](CCC(N)=O)C(=O)N[C@@H](CCCCNC(=N)N)C(=O)N1CCC[C@H]1C(=O)N[C@H](CCCNC(=N)N)C(=O)N(C)[C@@H](CC(C)C)C(=O)N[C@@H](C)C(=O)N[C@@H](Cc1c[nH]cn1)C(=O)N[C@@H](CCCCN)C(=O)NCC(=O)N1[C@H](C(=O)N[C@@H](Cc2ccc(I)cc2)C(=O)N2CCC[C@H]2C(=O)N[C@H](Cc2ccc(-c3ccccc3)cc2)C(=O)O)C[C@@H]2CCCC[C@@H]21)C(=O)O [compound 320] ({Tridecanoyl-γGlu-AEEA-AEEA}-[Nle][dR]Q[hArg]P[dR][NMeL]AHKG[Oic][Phe(4-I)]P[dBip]-OH) | > 90 | 73.4 | 86.5 |  | 17.8 |  |
| CCCCCCCCCCCCC(=O)N[C@@H](CCC(=O)NCCOCCOCC(=O)NCCOCCOCC(=O)N[C@@H](CCC(N)=O)C(=O)N[C@@H](CCC(=O)O)C(=O)N1CCC[C@H]1C(=O)N(C)[C@@H](CCCNC(=N)N)C(=O)N[C@@H](CC(C)C)C(=O)N[C@@H](CO)C(=O)N[C@@H](Cc1c[nH]cn1)C(=O)N[C@@H](CCCCN)C(=O)NCC(=O)N1CCC[C@H]1C(=O)N[C@@H](CCCC)C(=O)N1CCC[C@H]1C(=O)N[C@@H](Cc1ccc(Cl)cc1)C(=O)O)C(=O)O [compound 475] ({Tridecanoyl-γGlu-AEEA-AEEA}-QEP[NMeR]LSHKGP[Nle]P[Phe(4-Cl)]-OH) | 33 |  | < 1 | 10.3 |  | 35.8 |
| CCCCCCCCCCCCC(=O)N[C@@H](CCC(=O)NCCOCCOCC(=O)NCCOCCOCC(=O)N[C@@H](CCC(N)=O)C(=O)N[C@@H](CCCNC(=N)N)C(=O)N1CCC[C@H]1C(=O)N(C)[C@@H](CCCNC(=N)N)C(=O)N[C@@](C)(CC(C)C)C(=O)N[C@@H](CO)C(=O)N[C@@H](Cc1c[nH]cn1)C(=O)N[C@@H](CCCCN)C(=O)NCC(=O)N1[C@H](C(=O)N[C@@H](CCCC)C(=O)N[C@@H](Cc2ccc(Cl)cc2)C(=O)O)C[C@@H]2CCCC[C@@H]21)C(=O)O [compound 389] ({Tridecanoyl-γGlu-AEEA-AEEA}-QRP[NMeR][αMeL]SHKG[Oic][Nle][Phe(4-Cl)]-OH) | < 1 | 4 | < 1 | 0.196 |  |  |
| CCCCCCCCCCCCC(=O)N[C@@H](CCC(=O)NCCOCCOCC(=O)NCCOCCOCC(=O)N[C@@H](CCCC)C(=O)N[C@H](CCCNC(=N)N)C(=O)N[C@@H](CCC(N)=O)C(=O)N[C@@H](CCCCNC(=N)N)C(=O)N1CCC[C@H]1C(=O)N[C@H](CCCNC(=N)N)C(=O)N(C)[C@@H](CC(C)C)C(=O)N[C@@H](CO)C(=O)N[C@@H](Cc1c[nH]cn1)C(=O)N[C@@H](CCCCN)C(=O)NCC(=O)N1[C@H](C(=O)N[C@@H](Cc2ccc(I)cc2)C(=O)N2CCC[C@H]2C(=O)N[C@H](Cc2ccc(-c3ccccc3)cc2)C(=O)O)C[C@@H]2CCCC[C@@H]21)C(=O)O [compound 314] ({Tridecanoyl-γGlu-AEEA-AEEA}-[Nle][dR]Q[hArg]P[dR][NMeL]SHKG[Oic][Phe(4-I)]P[dBip]-OH) | > 90 | 71 | 77.5 |  | 2.77 |  |
| CCCCCCCCCCCCC(=O)N[C@@H](CCC(=O)NCCOCCOCC(=O)NCCOCCOCC(=O)N[C@H](CCC(N)=O)C(=O)N[C@@H](CCCNC(=N)N)C(=O)N1CCC[C@H]1C(=O)N(C)[C@@H](CCCNC(=N)N)C(=O)N[C@@](C)(CC(C)C)C(=O)N[C@@H](CO)C(=O)N[C@@H](Cc1c[nH]cn1)C(=O)N[C@@H](CCCCN)C(=O)NCC(=O)N1[C@H](C(=O)N[C@@H](CCCC)C(=O)N2CCC[C@H]2C(=O)N[C@@H](Cc2ccc(Cl)cc2)C(=O)O)C[C@@H]2CCCC[C@@H]21)C(=O)O [compound 386] ({Tridecanoyl-γGlu-AEEA-AEEA}-[dQ]RP[NMeR][αMeL]SHKG[Oic][Nle]P[Phe(4-Cl)]-OH) | 58 | 4 | 6 | 0.0934 |  |  |
| CCCCCCCCCCCCC(=O)N[C@@H](CCC(=O)NCCOCCOCC(=O)NCCOCCOCC(=O)N[C@H](CCC(N)=O)C(=O)N[C@@H](CCCCNC(=N)N)C(=O)N1CCC[C@H]1C(=O)N(C)[C@@H](CCCNC(=N)N)C(=O)N[C@@H](CC1CCCCC1)C(=O)N[C@@H](CO)C(=O)N[C@@H](Cc1c[nH]cn1)C(=O)N[C@@H](CCCCN)C(=O)NCC(=O)N1[C@H](C(=O)N[C@@H](CCCC)C(=O)NCCC(=O)N[C@H](Cc2ccc(Cl)cc2)C(=O)O)C[C@@H]2CCCC[C@@H]21)C(=O)O [compound 295] ({Tridecanoyl-γGlu-AEEA-AEEA}-[dQ][hArg]P[NMeR][Cha]SHKG[Oic][Nle][βAla][dPhe(4-Cl)]-OH) |  |  |  | 3.29 |  | 10.4 |
| CCCCCCCCCCCCC(=O)N[C@@H](CCC(=O)NCCOCCOCC(=O)NCCOCCOCC(=O)N[C@@H](CCC(N)=O)C(=O)N[C@@H](CCCNC(=N)N)C(=O)N1CCC[C@H]1C(=O)N[C@@H](CCCCNC(=N)N)C(=O)N[C@@](C)(CC(C)C)C(=O)N[C@@H](CO)C(=O)N[C@@H](Cc1c[nH]cn1)C(=O)N[C@@H](CCCCN)C(=O)NCC(=O)N1[C@H](C(=O)N[C@@H](CCCC)C(=O)N2CCC[C@H]2C(=O)N[C@@H](Cc2ccc(Cl)cc2)C(=O)O)C[C@@H]2CCCC[C@@H]21)C(=O)O [compound 360] ({Tridecanoyl-γGlu-AEEA-AEEA}-QRP[hArg][αMeL]SHKG[Oic][Nle]P[Phe(4-Cl)]-OH) | 81.5 | 2 | 2.5 | 0.0519 |  |  |
| CCCCCCCCCCCCC(=O)N[C@@H](CCC(=O)NCCOCCOCC(=O)NCCOCCOCC(=O)NC(CC(=O)N[C@@H](CCCNC(=N)N)C(=O)N1CCCC1(C)C(=O)N[C@@H](CCCCNC(=N)N)C(=O)NC(C)(CC(C)C)C(=O)N[C@@H](CO)C(=O)N[C@@H](Cc1c[nH]cn1)C(=O)N[C@@H](CCCCN)C(=O)NCC(=O)N1[C@H](C(=O)N[C@@H](CCCC)C(=O)N2CCCC2(C)C(=O)N[C@@H](Cc2ccc(Cl)cc2)C(=O)O)C[C@@H]2CCCC[C@@H]21)C(C)C)C(=O)O (stereo partly drawn) [compound 552] ({Tridecanoyl-γGlu-AEEA-AEEA}-[ξβ3hV]R[ξαMeP][hArg][ξαMeL]SHKG[Oic][Nle][ξαMeP][Phe(4-Cl)]-OH) | > 90 | 18 | 40 |  | 1.95 |  |
| CCCCCCCCCCCCC(=O)N[C@@H](CCC(=O)NCCOCCOCC(=O)NCCOCCOCC(=O)N[C@@H](CCC(N)=O)C(=O)N[C@@H](CCCNC(=N)N)C(=O)N1CCC[C@H]1C(=O)N[C@@H](CCC(=O)O)C(=O)N[C@@H](CC(C)C)C(=O)N[C@@H](CO)C(=O)N[C@@H](Cc1c[nH]cn1)C(=O)N[C@@H](CCCCN)C(=O)NCC(=O)N1CCC[C@H]1C(=O)N[C@@H](CCCC)C(=O)N1CCC[C@H]1C(=O)N[C@@H](Cc1ccc(Cl)cc1)C(=O)O)C(=O)O [compound 477] ({Tridecanoyl-γGlu-AEEA-AEEA}-QRPELSHKGP[Nle]P[Phe(4-Cl)]-OH) | 64 | 2 | < 1 | 0.423 |  |  |
